Like-named read-outs stand apart in the source and are kept apart here.
Tests used:
HRV2 [1] = details: n=2
HRV1A [2] = details: for relative infection: n=2
CVB4 [3] = details: n=2
HRV1A [4] = assay: microbe, parasite or virus in culture; details: Human rhinovirus sp.; for IC50: HeLa, read-out: IC50 (HRV1A); for activity at 0.03 µM / activity at 0.1 µM / activity at 0.31 µM / activity at 0.93 µM / activity at 2.78 µM / activity at 8.33 µM / activity at 25 µM: M-HeLa, 7 h; for activity at 0.03 µM: read-out: HRV1A infection (dsRNA), 0.03 µM; for activity at 0.1 µM: read-out: HRV1A infection (dsRNA), 0.10 µM; for activity at 0.31 µM: read-out: HRV1A infection (dsRNA), 0.31 µM; for activity at 0.93 µM: read-out: HRV1A infection (dsRNA), 0.93 µM; for activity at 2.78 µM: read-out: HRV1A infection (dsRNA), 2.78 µM; for activity at 8.33 µM: read-out: HRV1A infection (dsRNA), 8.33 µM; for activity at 25 µM: read-out: HRV1A infection (dsRNA), 25.00 µM
HRV14 [5] = details: n=2
HRV16 [6] = details: n=2
HRV2 [7] = assay: microbe, parasite or virus in culture; details: Human rhinovirus sp., HRV2, HeLa, read-out: IC50 (HRV2)
CVB4 [8] = assay: microbe, parasite or virus in culture; details: Enterovirus B, CVB4, HeLa, read-out: IC50 (CVB4)
HRV14 [9] = assay: microbe, parasite or virus in culture; details: Human rhinovirus sp., HRV14, HeLa, read-out: IC50 (HRV14)
CVA21 [10] = assay: microbe, parasite or virus in culture; details: Coxsackievirus, CVA21, HeLa, read-out: IC50 (CVA21)
CVB3 = details: n=2
CVA21 [11] = details: n=2
HRV16 [12] = assay: microbe, parasite or virus in culture; details: Human rhinovirus sp., HRV16, HeLa, read-out: IC50 (HRV16)
[13] = system: influenza virus (strain A/Puerto Rico/8/34/H1N1 depicted PR8); assay: microbe, parasite or virus in culture; details: unidentified influenza virus, A549, read-out: IC50 (PR8)

In the case of `O=C(Nc1ccc([N+](=O)[O-])cc1Cl)c1cc(Cl)cc(Cl)c1O` [TVB-1326], the relative infection (HRV2 [1]; 0.1 µM) is reported as 1.05, the relative infection (HRV2 [1]; 0.3 µM) is reported as 0.96 and the relative infection (HRV2 [1]; 0.9 µM) is reported as 0.86. The relative infection (HRV2 [1]; 2.8 µM) was 0.72, the relative infection (HRV2 [1]; 8.3 µM) was 0.15 and the relative infection (HRV2 [1]; 25.0 µM) was 0.01. For the same compound, the relative infection (HRV1A [2]; 0.1 µM) was 0.93, the relative infection (HRV1A [2]; 0.3 µM) was 0.91 and the relative infection (HRV1A [2]; 0.9 µM) was 0.84. The relative infection (HRV1A [2]; 2.8 µM) was 0.62, the relative infection (HRV1A [2]; 8.3 µM) was 0.17 and the relative infection (HRV1A [2]; 25.0 µM) was 0.02. For the same compound, the relative infection (CVB4 [3]; 0.1 µM) was 1.13, the relative infection (CVB4 [3]; 0.3 µM) was 1.22 and the relative infection (CVB4 [3]; 0.9 µM) was 1.20. For the same compound, the relative infection (CVB4 [3]; 2.8 µM) was 1.06, the relative infection (CVB4 [3]; 8.3 µM) was 0.71 and the relative infection (CVB4 [3]; 25.0 µM) was 0.29. The IC50 (HRV1A [4]) was 3.36 µM, the activity at 0.03 µM (HRV1A [4]) was 93% and the activity at 0.1 µM (HRV1A [4]) was 85%. For the same compound, the activity at 0.31 µM (HRV1A [4]) was 88%, the activity at 0.93 µM (HRV1A [4]) was 87% and the activity at 2.78 µM (HRV1A [4]) was 66%. It also gave an activity at 8.33 µM (HRV1A [4]) of 17%, an activity at 25 µM (HRV1A [4]) of 4% and a relative infection (HRV14 [5]; 0.1 µM) of 0.87. For the same compound, the relative infection (HRV14 [5]; 0.3 µM) was 0.90, the relative infection (HRV14 [5]; 0.9 µM) was 0.88 and the relative infection (HRV14 [5]; 2.8 µM) was 0.81. It also gave a relative infection (HRV14 [5]; 8.3 µM) of 0.46, a relative infection (HRV14 [5]; 25.0 µM) of 0.07 and a relative infection (HRV16 [6]; 0.1 µM) of 0.99. For the same compound, the relative infection (HRV16 [6]; 0.3 µM) was 1.00, the relative infection (HRV16 [6]; 0.9 µM) was 0.96 and the relative infection (HRV16 [6]; 2.8 µM) was 0.96. The relative infection (HRV16 [6]; 8.3 µM) was 0.68, the relative infection (HRV16 [6]; 25.0 µM) was 0.10 and the IC50 (HRV2 [7]) was 3.98 µM. It also gave an IC50 (CVB4 [8]) of 15 µM, an IC50 (HRV14 [9]) of 6.87 µM and an IC50 (CVA21 [10]) of about 25.8 µM. It also gave a relative infection (CVB3; 0.1 µM) of 1.05, a relative infection (CVB3; 0.3 µM) of 1.06 and a relative infection (CVB3; 0.9 µM) of 1.11. The relative infection (CVB3; 2.8 µM) was 1.06, the relative infection (CVB3; 8.3 µM) was 1.00 and the relative infection (CVB3; 25.0 µM) was 1.27. For the same compound, the relative infection (CVA21 [11]; 0.1 µM) was 0.87, the relative infection (CVA21 [11]; 0.3 µM) was 0.98 and the relative infection (CVA21 [11]; 0.9 µM) was 1.00. The relative infection (CVA21 [11]; 2.8 µM) was 0.99, the relative infection (CVA21 [11]; 8.3 µM) was 1.10 and the relative infection (CVA21 [11]; 25.0 µM) was 0.59. The IC50 (HRV16 [12]) was 11.1 µM and the IC50 [13] was 10.2 µM.

`O=C(Nc1ccc([N+](=O)[O-])cc1Cl)c1cc(Cl)ccc1OCCOc1ccccc1` [TVB-1329] showed a relative infection (HRV2 [1]; 0.1 µM) of 1.03, a relative infection (HRV2 [1]; 0.3 µM) of 1.10 and a relative infection (HRV2 [1]; 0.9 µM) of 0.98. It also gave a relative infection (HRV2 [1]; 2.8 µM) of 0.68, a relative infection (HRV2 [1]; 8.3 µM) of 0.36 and a relative infection (HRV2 [1]; 25.0 µM) of 0.02. For the same compound, the “antiviral activity against HRV1A (structure-activity study, in words)” value (HRV1A [2]) was “did not diminish the antiviral efficacy compared to niclosamide”, the relative infection (HRV1A [2]; 0.1 µM) was 1.00 and the relative infection (HRV1A [2]; 0.3 µM) was 1.04. For the same compound, the relative infection (HRV1A [2]; 0.9 µM) was 1.10, the relative infection (HRV1A [2]; 2.8 µM) was 1.02 and the relative infection (HRV1A [2]; 8.3 µM) was 0.59. For the same compound, the relative infection (HRV1A [2]; 25.0 µM) was 0.05, the relative infection (CVB4 [3]; 0.1 µM) was 1.12 and the relative infection (CVB4 [3]; 0.3 µM) was 1.28. It also gave a relative infection (CVB4 [3]; 0.9 µM) of 1.51, a relative infection (CVB4 [3]; 2.8 µM) of 1.62 and a relative infection (CVB4 [3]; 8.3 µM) of 1.33. It also gave a relative infection (CVB4 [3]; 25.0 µM) of 0.46, an IC50 (HRV1A [4]) of 9.34 µM and an activity at 0.03 µM (HRV1A [4]) of 112%. For the same compound, the activity at 0.1 µM (HRV1A [4]) was 112%, the activity at 0.31 µM (HRV1A [4]) was 119% and the activity at 0.93 µM (HRV1A [4]) was 123%. For the same compound, the activity at 2.78 µM (HRV1A [4]) was 111%, the activity at 8.33 µM (HRV1A [4]) was 47% and the activity at 25 µM (HRV1A [4]) was 6%. For the same compound, the relative infection (HRV14 [5]; 0.1 µM) was 0.86, the relative infection (HRV14 [5]; 0.3 µM) was 0.87 and the relative infection (HRV14 [5]; 0.9 µM) was 0.97. It also gave a relative infection (HRV14 [5]; 2.8 µM) of 0.86, a relative infection (HRV14 [5]; 8.3 µM) of 0.58 and a relative infection (HRV14 [5]; 25.0 µM) of 0.10. For the same compound, the relative infection (HRV16 [6]; 0.1 µM) was 0.84, the relative infection (HRV16 [6]; 0.3 µM) was 0.98 and the relative infection (HRV16 [6]; 0.9 µM) was 1.04. It also gave a relative infection (HRV16 [6]; 2.8 µM) of 1.26, a relative infection (HRV16 [6]; 8.3 µM) of 0.99 and a relative infection (HRV16 [6]; 25.0 µM) of 0.14. The IC50 (HRV2 [7]) was 5.07 µM, the IC50 (HRV14 [9]) was 9.3 µM and the IC50 (CVA21 [10]) was about 26.6 µM. For the same compound, the relative infection (CVB3; 0.1 µM) was 0.97, the relative infection (CVB3; 0.3 µM) was 1.06 and the relative infection (CVB3; 0.9 µM) was 1.19. For the same compound, the relative infection (CVB3; 2.8 µM) was 1.25, the relative infection (CVB3; 8.3 µM) was 1.07 and the relative infection (CVB3; 25.0 µM) was 1.01. It also gave a relative infection (CVA21 [11]; 0.1 µM) of 0.86, a relative infection (CVA21 [11]; 0.3 µM) of 0.97 and a relative infection (CVA21 [11]; 0.9 µM) of 1.08. It also gave a relative infection (CVA21 [11]; 2.8 µM) of 1.13, a relative infection (CVA21 [11]; 8.3 µM) of 1.29 and a relative infection (CVA21 [11]; 25.0 µM) of 0.68. It also gave an IC50 [13] of 10.3 µM.

For `CS(=O)(=O)c1ccc(NC(=O)c2cc(Cl)ccc2O)c(Cl)c1` [TVB-1338], the relative infection (HRV2 [1]; 0.1 µM) was 1.05, the relative infection (HRV2 [1]; 0.3 µM) was 1.11 and the relative infection (HRV2 [1]; 0.9 µM) was 1.12. The relative infection (HRV2 [1]; 2.8 µM) was 1.13, the relative infection (HRV2 [1]; 8.3 µM) was 1.12 and the relative infection (HRV2 [1]; 25.0 µM) was 0.76. The “antiviral activity against HRV1A (structure-activity study, in words)” value (HRV1A [2]) was “eliminated antiviral activity”, the relative infection (HRV1A [2]; 0.1 µM) was 1.02 and the relative infection (HRV1A [2]; 0.3 µM) was 0.96. The relative infection (HRV1A [2]; 0.9 µM) was 1.07, the relative infection (HRV1A [2]; 2.8 µM) was 1.12 and the relative infection (HRV1A [2]; 8.3 µM) was 1.11. The relative infection (HRV1A [2]; 25.0 µM) was 0.95, the relative infection (CVB4 [3]; 0.1 µM) was 1.00 and the relative infection (CVB4 [3]; 0.3 µM) was 1.02. For the same compound, the relative infection (CVB4 [3]; 0.9 µM) was 1.06, the relative infection (CVB4 [3]; 2.8 µM) was 1.15 and the relative infection (CVB4 [3]; 8.3 µM) was 1.02. For the same compound, the relative infection (CVB4 [3]; 25.0 µM) was 0.51, the activity at 0.03 µM (HRV1A [4]) was 123% and the activity at 0.1 µM (HRV1A [4]) was 106%. The activity at 0.31 µM (HRV1A [4]) was 109%, the activity at 0.93 µM (HRV1A [4]) was 105% and the activity at 2.78 µM (HRV1A [4]) was 106%. The activity at 8.33 µM (HRV1A [4]) was 111%, the activity at 25 µM (HRV1A [4]) was 112% and the relative infection (HRV14 [5]; 0.1 µM) was 1.07. It also gave a relative infection (HRV14 [5]; 0.3 µM) of 1.12, a relative infection (HRV14 [5]; 0.9 µM) of 1.20 and a relative infection (HRV14 [5]; 2.8 µM) of 1.17. The relative infection (HRV14 [5]; 8.3 µM) was 1.13, the relative infection (HRV14 [5]; 25.0 µM) was 0.62 and the relative infection (HRV16 [6]; 0.1 µM) was 1.09. For the same compound, the relative infection (HRV16 [6]; 0.3 µM) was 1.11, the relative infection (HRV16 [6]; 0.9 µM) was 1.15 and the relative infection (HRV16 [6]; 2.8 µM) was 1.13. It also gave a relative infection (HRV16 [6]; 8.3 µM) of 1.02, a relative infection (HRV16 [6]; 25.0 µM) of 0.67 and a relative infection (CVB3; 0.1 µM) of 0.97. The relative infection (CVB3; 0.3 µM) was 1.10, the relative infection (CVB3; 0.9 µM) was 1.09 and the relative infection (CVB3; 2.8 µM) was 1.05. It also gave a relative infection (CVB3; 8.3 µM) of 0.94, a relative infection (CVB3; 25.0 µM) of 0.94 and a relative infection (CVA21 [11]; 0.1 µM) of 1.02. For the same compound, the relative infection (CVA21 [11]; 0.3 µM) was 1.05, the relative infection (CVA21 [11]; 0.9 µM) was 1.03 and the relative infection (CVA21 [11]; 2.8 µM) was 1.05. It also gave a relative infection (CVA21 [11]; 8.3 µM) of 1.06, a relative infection (CVA21 [11]; 25.0 µM) of 0.81 and an IC50 (HRV16 [12]) of about 26.9 µM. The IC50 [13] was 42.9 µM.

From article PMC3486884 (PLoS Pathogens, 2012)
